Measurements reported in patent US20250171431A1, “HETEROCYCLIC INHIBITORS OF IGF-1R FOR TREATMENT OF DISEASE” (HORIZON THERAPEUTICS IRELAND DAC, priority 2023, published 2025).

Target: IGF-1R (Homo sapiens (Human), UniProt P08069)
Experiment: Example B-1: IGF-1R Assay (PC3 cells, IGF1 stimulation, AlphaLISA)
Format: cell-based
Conditions: 200 ng/mL IGF1 stimulation, read-out: Biological Activity against IGF-1R IC50
Method: 50K PC3 cells were seeded on day 1 in 50 μL of media in 96-well plate and incubated overnight at 37° C., 5% CO2. On day 2, all cells were expected to be at 80-90% confluency. Cells were starved for two hours by changing the media to 90 μL of EMEM serum-free media and incubated for 2 hours. Next, cells were treated with 10 μL of 10× concentrated and 3× serially diluted compounds for two hours. It makes 1× of compounds in 100 μL media. This was followed by stimulation of cells with 11×IGF1 for 30 min in 10 μL of serum-free EMEM media at the final concentration of 200 ng/mL.
The media was removed and replaced by 50 μL of 1× lysis buffer from the AlphaLISA kit (with 1× of cOmplete™ protease inhibitor). The plates were sealed, and cells were allowed to lyse for 10 min in the shaker before storing the plate at −20° C. until used. The AlphaLISA assay with processed cell lysates were performed as described in the protocol. Briefly, 10 μL of the undiluted sample were loaded to 384 well Optiplates and 5 μL of the acceptor mix (as described in the AlphaLISA kit) was added to each well. The plates were sealed and briefly vortexed followed by the incubation at RT for 3 hours. In the dark, 5 μL of donor mix was added to each well. All plates were sealed and stored at RT overnight. The plates were read in EnVision reader using standard AlphaLISA settings.
Compound activity was analyzed using CBIS data analysis suite (ChemInnovation, CA). Percentage inhibition was calculated using the following formula: % Inhibition=100%×(1−(mean RLU of test sample−mean RLU of vehicle control)/(mean RLU of EC80 control−mean RLU of vehicle control)). The activity for representative examples of the invention is shown in the following table, wherein A: IC50≤500 nM; B: 500 nM<IC50≤2 μM; C: 2 μM<IC50≤10 μM; D: IC50>10 μM.

Chain of IGF-1R (P08069 31-1367): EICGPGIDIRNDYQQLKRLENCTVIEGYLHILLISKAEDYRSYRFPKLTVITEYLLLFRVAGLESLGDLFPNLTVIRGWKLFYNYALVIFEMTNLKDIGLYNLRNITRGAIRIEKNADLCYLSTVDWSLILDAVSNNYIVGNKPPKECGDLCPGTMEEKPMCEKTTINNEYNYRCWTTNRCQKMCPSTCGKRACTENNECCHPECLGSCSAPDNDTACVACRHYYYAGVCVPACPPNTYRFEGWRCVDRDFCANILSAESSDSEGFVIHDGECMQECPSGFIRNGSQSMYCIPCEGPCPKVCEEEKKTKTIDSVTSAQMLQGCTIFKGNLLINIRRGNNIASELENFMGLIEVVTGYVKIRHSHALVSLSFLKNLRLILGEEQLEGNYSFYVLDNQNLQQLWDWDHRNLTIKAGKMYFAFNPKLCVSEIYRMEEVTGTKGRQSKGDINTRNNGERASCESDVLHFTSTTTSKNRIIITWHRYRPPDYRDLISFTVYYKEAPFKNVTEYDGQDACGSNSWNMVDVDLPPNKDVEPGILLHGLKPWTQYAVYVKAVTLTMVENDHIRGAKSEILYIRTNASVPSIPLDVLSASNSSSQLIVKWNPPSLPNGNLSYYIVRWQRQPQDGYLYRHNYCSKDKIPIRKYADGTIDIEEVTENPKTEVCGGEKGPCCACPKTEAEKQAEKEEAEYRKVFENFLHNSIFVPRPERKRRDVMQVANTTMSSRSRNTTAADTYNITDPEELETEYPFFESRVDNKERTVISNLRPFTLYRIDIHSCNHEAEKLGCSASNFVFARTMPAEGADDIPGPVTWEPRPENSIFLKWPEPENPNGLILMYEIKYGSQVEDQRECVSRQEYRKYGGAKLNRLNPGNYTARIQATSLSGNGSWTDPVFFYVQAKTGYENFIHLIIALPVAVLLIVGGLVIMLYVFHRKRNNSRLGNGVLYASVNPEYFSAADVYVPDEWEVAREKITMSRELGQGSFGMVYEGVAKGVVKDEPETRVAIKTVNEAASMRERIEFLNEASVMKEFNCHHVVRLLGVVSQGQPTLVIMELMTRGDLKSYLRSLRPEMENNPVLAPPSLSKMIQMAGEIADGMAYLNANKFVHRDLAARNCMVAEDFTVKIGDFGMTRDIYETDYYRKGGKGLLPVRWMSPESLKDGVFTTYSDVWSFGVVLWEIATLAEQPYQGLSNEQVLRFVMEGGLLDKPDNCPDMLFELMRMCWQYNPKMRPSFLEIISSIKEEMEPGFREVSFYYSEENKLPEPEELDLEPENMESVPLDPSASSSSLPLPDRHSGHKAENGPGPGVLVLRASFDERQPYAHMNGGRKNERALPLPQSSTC

SMILES	IC50 [nM]
COc1cc(Nc2nccc(Nc3cnc4c(c3)CC[C@@H](C)C4)n2)ccc1OCCCN1CCCCC1 [Compound 71, 4-[(R)-7-methyl-5,6,7,8-tetrahydro-3-quinolylamino]-2-[3-methoxy-4-(3-piperidinopropoxy)phenylamino] pyrimidine]	≤ 500
CCc1ccc2cc(Nc3ccnc(Nc4ccc(OCCCN5CCCCC5)c(OC)c4)n3)cnc2c1 [Compound 72, 4-(7-ethyl-3-quinolylamino)-2-[3-methoxy-4-(3-piperidinopropoxy)phenylamino]pyrimidine]	≤ 500
COc1cc(Nc2nccc(Nc3cnc4c(c3)CCCC4(C)C)n2)ccc1OCCCN1CCCCC1 [Compound 73, 4-(8,8-dimethyl-5,6,7,8-tetrahydro-3-quinolylamino)-2-[3-methoxy-4-(3-piperidinopropoxy)phenylamino] pyrimidine]	≤ 500
COc1cc(Nc2nccc(Nc3cnc4c(c3)CCCC4C(C)(C)C)n2)ccc1OCCCN1CCCCC1 (centres unmarked) [Compound 74, 4-[8-(tert-butyl)-5,6,7,8-tetrahydro-3-quinolylamino]-2-[3-methoxy-4-(3-piperidinopropoxy)phenylamino] pyrimidine]	≤ 500
COc1cc(Nc2nccc(Nc3cnc4c(c3)C3CCC4CC3)n2)ccc1O[C@H]1C[C@H](N(C)C)C1 [Compound 75, 4-{3-azatricyclo[6.2.2.02,7]dodeca-2(7),3,5-trien-5-ylamino}-2-{3-methoxy-4-[(1r,3r)-3-(dimethylamino)cyclobutoxy]phenylamino}pyrimidine]	≤ 500
COc1cc(Nc2nccc(Nc3cnc4c(c3)C3CCC4C3)n2)ccc1O[C@H]1C[C@H](N(C)C)C1 (some centres unmarked) [Compound 76, 4-(3-azatricyclo[6.2.1.02,7]undeca-2,4,6-trien-5-ylamino)-2-{3-methoxy-4-[(1r,3r)-3-(dimethylamino)cyclobutoxy]phenylamino}pyrimidine]	≤ 500
COc1cc(Nc2nccc(Nc3cnc4c(c3)CCC3(CCCC3)C4)n2)ccc1O[C@H]1C[C@H](N(C)C)C1 [Compound 78, 4-(6′,8′-dihydro-5′H-spiro[cyclopentane-1,7′-quinolin]-3′-ylamino)-2-{3-methoxy-4-[(1r,3r)-3-(dimethylamino)cyclobutoxy]phenylamino}pyrimidine]	≤ 500
COc1cc(Nc2nccc(Nc3cnc4c(c3)CC3(CCCC3)CC4)n2)ccc1O[C@H]1C[C@H](N(C)C)C1 [Compound 79, 4-(7′,8′-dihydro-5′H-spiro[cyclopentane-1,6′-quinolin]-3′-ylamino)-2-{3-methoxy-4-[(1r,3r)-3-(dimethylamino)cyclobutoxy]phenylamino}pyrimidine]	≤ 500
COc1cc(Nc2nccc(Nc3cnc4c(c3)CC3(CCC3)CC4)n2)ccc1O[C@H]1C[C@H](N(C)C)C1 [Compound 80, 4-(7′,8′-dihydro-5′H-spiro[cyclobutane-1,6′-quinolin]-3′-ylamino)-2-{3-methoxy-4-[(1r,3r)-3-(dimethylamino)cyclobutoxy]phenylamino}pyrimidine]	≤ 500
COc1cc(Nc2nccc(Nc3cnc4c(c3)CC(F)(F)CC4)n2)ccc1O[C@H]1C[C@H](N(C)C)C1 [Compound 81, 4-(6,6-difluoro-5,6,7,8-tetrahydro-3-quinolylamino)-2-{3-methoxy-4-[(1r,3r)-3-(dimethylamino)cyclobutoxy]phenylamino}pyrimidine]	≤ 500
COc1cc(Nc2nccc(Nc3cnc4c(c3)CC(O)CC4)n2)ccc1O[C@H]1C[C@@H](N(C)C)C1 (some centres unmarked) [Compound 82, 3-(2-{3-methoxy-4-[(1s,3s)-3-(dimethylamino)cyclobutoxy]phenylamino}-4-pyrimidinylamino)-5,6,7,8-tetrahydro-6-quinolinol]	500 to 2000
COc1cc(Nc2nccc(Nc3cnc4ncc(Cl)cc4c3)n2)ccc1O[C@H]1C[C@@H](N(C)C)C1 [Compound 83, 4-(6-chloro-1,8-diaza-3-naphthylamino)-2-{3-methoxy-4-[(1s,3s)-3-(dimethylamino)cyclobutoxy]phenylamino}pyrimidine]	≤ 500
COc1cc(Nc2nccc(Nc3cnc4c(Cl)cncc4c3)n2)ccc1O[C@H]1C[C@@H](N(C)C)C1 [Compound 84, 4-(8-chloro-1,6-diaza-3-naphthylamino)-2-{3-methoxy-4-[(1s,3s)-3-(dimethylamino)cyclobutoxy]phenylamino}pyrimidine]	500 to 2000
COc1cc(Nc2nccc(Nc3cnc4cc(F)cnc4c3)n2)cnc1O[C@H]1C[C@@H](N(C)C)C1 [Compound 85, 4-(7-fluoro-1,5-diaza-3-naphthylamino)-2-{5-methoxy-6-[(1s,3s)-3-(dimethylamino)cyclobutoxy]-3-pyridylamino}pyrimidine]	500 to 2000
COc1cc(Nc2nccc(Nc3cnc4ncc(F)cc4c3)n2)ccc1O[C@H]1C[C@@H](N(C)C)C1 [Compound 86, 4-(6-fluoro-1,8-diaza-3-naphthylamino)-2-{3-methoxy-4-[(1s,3s)-3-(dimethylamino)cyclobutoxy]phenylamino}pyrimidine]	≤ 500
COc1cc(Nc2nccc(Nc3cnc4cnc(Cl)cc4c3)n2)ccc1O[C@H]1C[C@@H](N(C)C)C1 [Compound 87, 4-(6-chloro-1,7-diaza-3-naphthylamino)-2-{3-methoxy-4-[(1s,3s)-3-(dimethylamino)cyclobutoxy]phenylamino}pyrimidine]	≤ 500
COc1cc(Nc2nccc(Nc3cnc4cncc(F)c4c3)n2)ccc1O[C@H]1C[C@@H](N(C)C)C1 [Compound 88, N2-(4-((1s,3s)-3-(dimethylamino)cyclobutoxy)-3-methoxyphenyl)-N4-(5-fluoro-1,7-naphthyridin-3-yl)pyrimidine-2,4-diamine]	≤ 500
COc1cc(Nc2nccc(Nc3cnc4cc(F)c(F)cc4c3)n2)cnc1OC1CCNCC1 [Compound 89, N4-(6,7-difluoroquinolin-3-yl)-N2-(5-methoxy-6-(piperidin-4-yloxy)pyridin-3-yl)pyrimidine-2,4-diamine]	500 to 2000
COc1nc(N2CCN(C)CC2)ccc1Nc1nccc(Nc2cc3cccc(F)c3nc2O)n1 [Compound 90, 8-fluoro-3-{2-[2-methoxy-6-(4-methyl-1-piperazinyl)-3-pyridylamino]-4-pyrimidinylamino}-2-quinolinol]	≤ 500
COc1cc(Nc2nccc(Nc3cnc4c(F)cccc4c3)n2)ccc1OCCCN1CCCCC1 [Compound 96, 4-(8-fluoro-3-quinolylamino)-2-[3-methoxy-4-(3-piperidinopropoxy)phenylamino]pyrimidine]	≤ 500
COc1cc(Nc2nccc(Nc3cnc4cc(F)ccc4c3)n2)ccc1OCCCN1CCCCC1 [Compound 97, 4-(7-fluoro-3-quinolylamino)-2-[3-methoxy-4-(3-piperidinopropoxy)phenylamino]pyrimidine]	≤ 500
COc1cc(Nc2nccc(Nc3cnc4cc(C)ccc4c3)n2)ccc1OCCCN1CCCCC1 [Compound 98, 2-[3-methoxy-4-(3-piperidinopropoxy)phenylamino]-4-(7-methyl-3-quinolylamino)pyrimidine]	≤ 500
COc1cc(Nc2nccc(Nc3cnc4c(C)cccc4c3)n2)ccc1OCCCN1CCCCC1 [Compound 99, 2-[3-methoxy-4-(3-piperidinopropoxy)phenylamino]-4-(8-methyl-3-quinolylamino)pyrimidine]	≤ 500
COc1cc(Nc2nccc(Nc3cnc4c(c3)OCC(C)O4)n2)ccc1OCCCN1CCCCC1 (centres unmarked) [Compound 101, 2-[3-methoxy-4-(3-piperidinopropoxy)phenylamino]-4-(3-methyl-2,3-dihydro-1,4-dioxa-5-aza-7-naphthylamino)pyrimidine]	≤ 500
COc1cc(Nc2nccc(Nc3cnc4ccc(C5CC5)cc4c3)n2)ccc1OCCCN1CCCCC1 [Compound 102, 4-(6-cyclopropyl-3-quinolylamino)-2-[3-methoxy-4-(3-piperidinopropoxy)phenylamino]pyrimidine]	≤ 500
COc1cc(Nc2nccc(Nc3cnc4ccc(C5CC5)cc4c3)n2)ccc1OCCCN1CCOCC1 [Compound 103, 4-(6-cyclopropyl-3-quinolylamino)-2-[3-methoxy-4-(3-morpholinopropoxy)phenylamino]pyrimidine]	≤ 500
CCc1ccc2ncc(Nc3ccnc(Nc4ccc(OCCCN5CCOCC5)c(OC)c4)n3)cc2c1 [Compound 104, 4-(6-ethyl-3-quinolylamino)-2-[3-methoxy-4-(3-morpholinopropoxy)phenylamino]pyrimidine]	≤ 500
C[C@@H]1COc2ncc(Nc3ccnc(Nc4ccc(OCCCN5CCOCC5)cc4)n3)cc2O1 [Compound 105, 4-[(R)-2-methyl-2,3-dihydro-1,4-dioxa-5-aza-7-naphthylamino]-2-[p-(3-morpholinopropoxy)phenylamino]pyrimidine]	≤ 500
C[C@H]1COc2ncc(Nc3ccnc(Nc4ccc(OCCCN5CCOCC5)cc4)n3)cc2O1 [Compound 106, 4-[(S)-2-methyl-2,3-dihydro-1,4-dioxa-5-aza-7-naphthylamino]-2-[p-(3-morpholinopropoxy)phenylamino]pyrimidine]	500 to 2000
